# Assay results: US10143686B2, “Oxidosqualene cyclase as a protein target for anticancer therapeutics” (The Curators of the University of Missouri, priority 2010, dated 2018)
# Counter-ions that a name gives are not always drawn. Like-named read-outs stand apart in the source and are kept apart here.
# Assays:
# Type in all cases: cell-based
# [1] = test system: T47-D breast cancer cells; test: SRB cell viability assay, T47-D; details: for IC50: Homo sapiens, T47D, Breast (ER+ PR+)
# Description: (§1) The sulforhodamine B (SRB) assay was employed to evaluate the effect of OSC inhibitor Ro 48-8071 on viability of breast cancer and normal mammary gland cells with slight modification of the original procedure established at NCI. Accordingly, the cells were seeded in 96-well plates in 100 μl culture medium and incubated overnight at 37° C. with 5% CO2. […] The surviving or adherent cells were fixed in situ by withdrawing the growth medium and adding 100 μl of PBS and 100 μl of 50% cold trichloroacetic acid and then incubating at 4° C. for 1 h. The surviving cells were washed with ice-water, dried at room temperature (RT), and then stained with 50 μl 4% SRB for 8 min at RT. Unbound dye was removed by washing 5 times with cold 1% acetic acid, and the plates were dried at RT. Bound stain was solubilized with 150 μl 10 mM Tris buffer, and absorbance of samples were measured at 520 nm with a SpecTRA MAX 190 microplate reader (Sunnyvale, Calif.). In these experiments on BT-474, T47-D, and AG11132A cell lines, six wells were used for each concentration, and each experiment was performed at least twice.
# (§2) The effect of OSC inhibition was evaluated in additional cancer cell lines as well. Cancer cell lines may be purchased from ATCC (Manassas, Va.). The SRB assay has been employed for determination of the inhibitory effects of RO 48-8071 on growth of different cancer cells. Cells were seeded into 96-well plates and incubated overnight at 37° C. with 5% CO2. The culture medium was removed after 24 hours, and cells were washed with DMEM/F12 medium and then treated with various concentrations of RO 48-8071 in 5% FBS culture medium for 24 and 48 hours. Surviving or adherent cells were fixed in situ by withdrawing the growth medium, adding 100 μl PBS and 100 μl 50% trichloroacetic acid and then incubating at 4° C. for one hour. Cells were washed with ice-cold water, dried at room temperature (RT), and then stained with 50 μl 4% SRB for eight minutes at RT. Unbound dye was removed by washing with cold 1% acetic acid for five times, and plates were dried at RT. Bound stain was solubilized with 150 μl 10 mM Tris buffer and absorbance of samples was read at 520 nm with a SpecTRA MAX 190 microplate reader (Molecular Devices, Sunnyvale, Calif.). Six wells were used for each concentration, and each experiment was performed two to three times.
# Effect of RO 48-8071 on breast cancer cell line T47-D viability. […] The culture mediums employed 10% FBS DMEM/F12 for culture and 5% FBS DMEM/F12 for treatment.
# LoVo colon cancer cells = test: SRB cell viability assay, LoVo; details: Homo sapiens
# Description: as §2
# Effect of RO 48-8071 on colon cancer cell LoVo viability. […] The culture mediums employed 10% FBS F-12K for culture and 5% FBS F-12K for treatment.
# [2] = test system: BxPC-3 pancreatic cancer cells; test: SRB cell viability assay, BxPC-3; details: Homo sapiens, BxPC-3, Pancreas
# Description: as §2
# Effect of RO 48-8071 on pancreatic cancer cell line BxPC-3 viability. […]
# [3] = test system: normal mammary AG11132A cells; test: SRB cell viability assay, normal mammary cells; details: 24 hours, FIG. 3
# Description: as §1
# [4] = test system: PC-3 and DU-145 human prostate cancer cells; test: Annexin V / PI apoptosis assay, prostate cancer cells; details: 24 hours
# Excerpt: Apoptosis is a normal physiologic process which occurs during embryonic development as well as in maintenance of tissue homeostasis. The apoptotic program is characterized by certain morphologic features, including loss of plasma membrane asymmetry and attachment, condensation of the cytoplasm and nucleus, and internucleosomal cleavage of DNA. […]. In apoptotic cells, the membrane phospholipid phosphatidylserine (PS) is translocated from the inner to the outer leaflet of the plasma membrane, thereby exposing PS to the external cellular environment. Annexin V is a 35-36 kDa Ca2+ dependent phospholipid-binding protein that has a high affinity for PS, and binds to cells with exposed PS. Annexin V may be conjugated to fluorochromes including FITC. […]
# FITC Annexin V staining precedes the loss of membrane integrity which accompanies the latest stages of cell death resulting from either apoptotic or necrotic processes. […] However, when apoptosis is measured over time, cells can be often tracked from FITC Annexin V and PI negative (viable, or no measurable apoptosis), to FITC Annexin V positive and PI negative (early apoptosis, membrane integrity is present) and finally to FITC Annexin V and PI positive (end stage apoptosis and death). […]
# [5] = 24 hours, read-out: IC50 (μM) (24 hours)
# [6] = 48 hours, read-out: IC50 (μM) (48 hours)
compound,measurement,setting,value
"C=CCN(C)CCCCCCOc1ccc(C(=O)c2ccc(Br)cc2)c(F)c1 [Ro 48-8071, 4′-[6-(Allylmethylamino)hexyloxy]-4-bromo-2′-fluorobenzophenone fumarate]",effect on cell viability (SRB),"[1]; 24 hours, dose-dependent, FIG. 2B",significantly inhibit the viability
same,IC50,[1]; [5],11.5 ± 0.358 µM
same,IC50,[1]; [6],7.76 ± 0.293 µM
same,IC50,LoVo colon cancer cells; [5],9.461 ± 0.07 µM
same,IC50,LoVo colon cancer cells; [6],3.27 ± 0.541 µM
same,IC50,[2]; [5],11.4 ± 0.621 µM
same,IC50,[2]; [6],7.11 ± 0.102 µM
same,inhibition of normal mammary cell viability compared with BT-474,[3],significantly less inhibition
same,apoptosis and cell death (annexin V / PI positive cells),[4],Induces Apoptosis and Cell Death
